Reference: the NIST ThermoML archive (doi:10.1021/je900722m)
Numbers after ± are expanded uncertainties.

Experiment: xn = mol fraction of the nth substance listed
Conditions: 101 kPa, Liquid

In the case of `CC(C)CO` [2-methyl-1-propanol] + CCCCO, the viscosity (323.15 K, x2 = 0.5) is reported as 1.91 ± 0.033 mPa·s, the mass density (323.15 K, x2 = 0.5999) is reported as 783.136 ± 0.47 kg/m3 and the viscosity (323.15 K, x2 = 0.5999) is reported as 1.89 ± 0.033 mPa·s. The mass density (323.15 K, x2 = 0.6999) was 783.985 ± 0.47 kg/m3, the viscosity (323.15 K, x2 = 0.6999) was 1.877 ± 0.033 mPa·s and the mass density (323.15 K, x2 = 0.7993) was 784.825 ± 0.46 kg/m3. For the same compound, the viscosity (323.15 K, x2 = 0.7993) was 1.864 ± 0.032 mPa·s, the mass density (323.15 K, x2 = 0.8995) was 785.654 ± 0.46 kg/m3 and the viscosity (323.15 K, x2 = 0.8995) was 1.843 ± 0.032 mPa·s. It also gave a mass density (328.15 K, x2 = 0.101) of 774.633 ± 0.48 kg/m3, a viscosity (328.15 K, x2 = 0.101) of 1.68 ± 0.029 mPa·s and a mass density (328.15 K, x2 = 0.2029) of 775.537 ± 0.48 kg/m3. For the same compound, the viscosity (328.15 K, x2 = 0.2029) was 1.692 ± 0.03 mPa·s, the mass density (328.15 K, x2 = 0.3008) was 776.405 ± 0.48 kg/m3 and the viscosity (328.15 K, x2 = 0.3008) was 1.689 ± 0.03 mPa·s. For the same compound, the mass density (328.15 K, x2 = 0.4) was 777.281 ± 0.48 kg/m3, the viscosity (328.15 K, x2 = 0.4) was 1.684 ± 0.029 mPa·s and the mass density (328.15 K, x2 = 0.5) was 778.156 ± 0.47 kg/m3. For the same compound, the viscosity (328.15 K, x2 = 0.5) was 1.673 ± 0.029 mPa·s, the mass density (328.15 K, x2 = 0.5999) was 779.026 ± 0.47 kg/m3 and the viscosity (328.15 K, x2 = 0.5999) was 1.668 ± 0.029 mPa·s. The mass density (328.15 K, x2 = 0.6999) was 779.893 ± 0.47 kg/m3, the viscosity (328.15 K, x2 = 0.6999) was 1.662 ± 0.029 mPa·s and the mass density (328.15 K, x2 = 0.7993) was 780.744 ± 0.47 kg/m3. It also gave a viscosity (328.15 K, x2 = 0.7993) of 1.658 ± 0.029 mPa·s, a mass density (328.15 K, x2 = 0.8995) of 781.588 ± 0.47 kg/m3 and a viscosity (328.15 K, x2 = 0.8995) of 1.65 ± 0.029 mPa·s. It also gave a mass density (333.15 K, x2 = 0.101) of 770.368 ± 0.49 kg/m3, a viscosity (333.15 K, x2 = 0.101) of 1.507 ± 0.027 mPa·s and a mass density (333.15 K, x2 = 0.2029) of 771.292 ± 0.49 kg/m3. For the same compound, the viscosity (333.15 K, x2 = 0.2029) was 1.523 ± 0.027 mPa·s, the mass density (333.15 K, x2 = 0.3008) was 772.177 ± 0.49 kg/m3 and the viscosity (333.15 K, x2 = 0.3008) was 1.52 ± 0.027 mPa·s. It also gave a mass density (333.15 K, x2 = 0.4) of 773.068 ± 0.48 kg/m3, a viscosity (333.15 K, x2 = 0.4) of 1.511 ± 0.027 mPa·s and a mass density (333.15 K, x2 = 0.5) of 773.961 ± 0.48 kg/m3. The viscosity (333.15 K, x2 = 0.5) was 1.499 ± 0.027 mPa·s, the mass density (333.15 K, x2 = 0.5999) was 774.846 ± 0.48 kg/m3 and the viscosity (333.15 K, x2 = 0.5999) was 1.489 ± 0.026 mPa·s. It also gave a mass density (333.15 K, x2 = 0.6999) of 775.732 ± 0.48 kg/m3, a viscosity (333.15 K, x2 = 0.6999) of 1.488 ± 0.026 mPa·s and a mass density (333.15 K, x2 = 0.7993) of 776.596 ± 0.48 kg/m3. For the same compound, the viscosity (333.15 K, x2 = 0.7993) was 1.484 ± 0.026 mPa·s, the mass density (333.15 K, x2 = 0.8995) was 777.457 ± 0.47 kg/m3 and the viscosity (333.15 K, x2 = 0.8995) was 1.48 ± 0.026 mPa·s. The mass density (338.15 K, x2 = 0.101) was 766.021 ± 0.5 kg/m3, the viscosity (338.15 K, x2 = 0.101) was 1.342 ± 0.024 mPa·s and the mass density (338.15 K, x2 = 0.2029) was 766.966 ± 0.49 kg/m3. It also gave a viscosity (338.15 K, x2 = 0.2029) of 1.363 ± 0.024 mPa·s, a mass density (338.15 K, x2 = 0.3008) of 767.871 ± 0.49 kg/m3 and a viscosity (338.15 K, x2 = 0.3008) of 1.361 ± 0.024 mPa·s. The mass density (338.15 K, x2 = 0.4) was 768.778 ± 0.49 kg/m3, the viscosity (338.15 K, x2 = 0.4) was 1.357 ± 0.024 mPa·s and the mass density (338.15 K, x2 = 0.5) was 769.689 ± 0.49 kg/m3. For the same compound, the viscosity (338.15 K, x2 = 0.5) was 1.351 ± 0.024 mPa·s, the mass density (338.15 K, x2 = 0.5999) was 770.594 ± 0.49 kg/m3 and the viscosity (338.15 K, x2 = 0.5999) was 1.343 ± 0.024 mPa·s. For the same compound, the mass density (338.15 K, x2 = 0.6999) was 771.495 ± 0.48 kg/m3, the viscosity (338.15 K, x2 = 0.6999) was 1.341 ± 0.024 mPa·s and the mass density (338.15 K, x2 = 0.7993) was 772.378 ± 0.48 kg/m3. It also gave a viscosity (338.15 K, x2 = 0.7993) of 1.338 ± 0.024 mPa·s, a mass density (338.15 K, x2 = 0.8995) of 773.258 ± 0.48 kg/m3 and a viscosity (338.15 K, x2 = 0.8995) of 1.335 ± 0.024 mPa·s. The mass density (343.15 K, x2 = 0.101) was 761.578 ± 0.5 kg/m3, the viscosity (343.15 K, x2 = 0.101) was 1.204 ± 0.022 mPa·s and the mass density (343.15 K, x2 = 0.2029) was 762.548 ± 0.5 kg/m3. For the same compound, the viscosity (343.15 K, x2 = 0.2029) was 1.226 ± 0.022 mPa·s, the mass density (343.15 K, x2 = 0.3008) was 763.474 ± 0.5 kg/m3 and the viscosity (343.15 K, x2 = 0.3008) was 1.23 ± 0.022 mPa·s. The mass density (343.15 K, x2 = 0.4) was 764.4 ± 0.5 kg/m3, the viscosity (343.15 K, x2 = 0.4) was 1.228 ± 0.022 mPa·s and the mass density (343.15 K, x2 = 0.5) was 765.333 ± 0.5 kg/m3. For the same compound, the viscosity (343.15 K, x2 = 0.5) was 1.225 ± 0.022 mPa·s, the mass density (343.15 K, x2 = 0.5999) was 766.26 ± 0.49 kg/m3 and the viscosity (343.15 K, x2 = 0.5999) was 1.218 ± 0.022 mPa·s. For the same compound, the mass density (343.15 K, x2 = 0.6999) was 767.182 ± 0.49 kg/m3, the viscosity (343.15 K, x2 = 0.6999) was 1.215 ± 0.022 mPa·s and the mass density (343.15 K, x2 = 0.7993) was 768.085 ± 0.49 kg/m3. The viscosity (343.15 K, x2 = 0.7993) was 1.213 ± 0.022 mPa·s, the mass density (343.15 K, x2 = 0.8995) was 768.986 ± 0.49 kg/m3 and the viscosity (343.15 K, x2 = 0.8995) was 1.211 ± 0.022 mPa·s.
